Patent publication US12569507B2, “CAR T-cells for the treatment of bone metastatic cancer” (H. Lee Moffitt Cancer Center and Research Institute, Inc., priority 2018, dated 2026)

Legend:
[1] = tested on: Panc02.03 pancreatic cancer cells; test: IPP production in response to zoledronate, LC-MS/MS of cell extracts; format: cell-based; settings: Panc02.03 cells, even after prolonged treatment with high doses
Experimental: (§1) Following treatment of tumor cells with ZOL, IPP was measured in cell extracts by tandem LC-MS/MS, using AppCp as an internal standard. […] ZOL treatment was administered for 1 h or 18 h, at 2 different doses: 10 μM or 25 μM.
(§2) In order to verify that zoledronate effectively induces IPP accumulation in a model system, C4-2B-PSCA-Luc human CRPC prostate cancer cells were treated with 10 μM or 25 μM of zoledronate, for 1 h or 18 h. Intracellular IPP levels were measured using a semi-quantitative mass spectrometry assay. T47D breast cancer cells were used as positive control, and Panc02.03 pancreatic cancer cells were used as negative controls.

T47D breast cancer cells = test: as above; format: cell-based; settings: 1 h, high-dose zoledronate
Experimental: as §1, §2

C4-2B-PSCA cells [2] = test: RTCA cytotoxicity with or without zoledronate; format: cell-based, human; settings: γδ T-cells in combination with zoledronate
Experimental: (§3) Summary of RTCA analysis of C4-2B-PSCA, or control PSCA null C4-2B, cells co-cultured with γδ CAR-T cells, or untransduced controls (UT). FIGS. […] show tumor cells without ZOL pretreatment. FIGS. 6C and 6D show tumor cells with 2 h ZOL pretreatment. FIGS. 6A and 6C show tumor cell viability 2 h post co-culture. FIGS. 6B and 6D show 30 h post co-culture.
(§4) The CAR- and TCR-mediated mechanism of tumor cell recognition were tested using the CRPC C4-2B cell line.

[3] = tested on: Parental C4-2B cells (PSCA null); test: RTCA cytotoxicity with or without zoledronate; format: cell-based, human; settings: γδ T-cells in combination with zoledronate
Experimental: as §3, §4

[4] = tested on: C4-2B luciferase expressing cells; test: Intratibial C4-2B bone metastatic CRPC model, γδ T-cells with zoledronate or vehicle; format: in vivo, NSG mice
Text: FIGS. 7A to 7D show C4-2B cells inoculated into NSG mice and treated with either zoledronate (ZOL) or vehicle control. After establishment and randomization mice (n=15/group) were inoculated with 3.5×10^6 […]. Subsets of mice were removed from the study at 1, 3 and 5 days late. […] Number illustrate the percentage of γδ T-cells in the total marrow analysis over time. […] FIG. 7C is a graph showing RLUs quantitated over time and the growth rates calculated for each group. Asterisk indicates statistical significance. Mice at the final time point were assessed for γδ T-cell localization (CD3), apoptosis (cleaved caspase-3; CC3) and proliferation (phospho histone H3; pHH3). […] Arrows indicate positivity. DAPI was used as a nuclear counterstain.
Next, the anti-tumor activity of γδ T-cells on established bone metastatic CRPC lesions in vivo was assessed. NSG (NOD.Cg-Prkdcscid112rgtm1Wjl/SzJ) immunocompromised mice were intratibially inoculated with C4-2B luciferase expressing cells (1×10^5) and once established were randomized in zoledronate (0.1 mg/Kg) or vehicle (saline) groups (n=25 per group) based on relative luminescence unit (RLU) measurement. One week later, mice received tail vein injections of human γδ T-cells (3.5×10^6/mouse).
Groups of mice (n=5) were removed from the study 1, 3, 5 days subsequent to injection with tibias being flushed and assessed for human CD3 Vd2 content by flow cytometry. […] Bioluminescence was used as a correlate of tumor growth.

[5] = tested on: PSCA-expressing C42B prostate cancer cells; test: Interferon-γ ELISA of γδ CAR-T coculture supernatants; format: cell-based
Text: Four variants of the anti-PSCA CAR were generated containing either CD27 (CD27z), CD28 (CD28z), or 4-1BB (BBz) costimulation. The fourth variant contains a CD27 costimulatory domain where the TRAF-binding site has been replaced with an inert flexible linker (G4S). γδ CAR-T cells expressing either CAR variant (or GFP as controls) were generated, and cocultured with PSCA-expressing C42B prostate cancer cells, in presence or absence of zoledronate, at the indicated doses. The presence of interferon-γ in the supernatants (measured by ELISA) was used as a marker of T cell activation. CAR-expressing T cells (but not untransduced or GFP-transduced cells) reacted to target cells by producing interferon-γ (solid bars).

CRPC C4-2BPSCA cell line = test: Cytotoxicity of γδ (CAR)-T cells with or without ZOL; format: cell-based; settings: ZOL 0.4 μM added to γδ CAR-T
Experimental: FIGS. 11A and 11B show zoledronate enhances γδ (CAR)-T cells cytotoxic effect.
(§5) γδ CAR-T cells recognize tumor cells via CAR and via TCR. The CAR- and TCR-mediated mechanisms of tumor cell recognition were tested using the CRPC C4-2BPSCA cell line. Cancer cells were treated with either untransduced (UT) control or CAR-expressing γδ T-cells, in the presence or absence of ZOL (0.4 μM). In presence of ZOL, control γδ T cells induced a cytotoxic effect at approx. 18 h, reflecting recognition of C4-2B-PSCA cells via TCR. […] The ability to induce a potent cytolytic effect with lesser cytokine production that can be modulated by ZOL is important since it may allow γδ (CAR-)T-cells to mediate more precise tumor killing, reducing the risk for complications related to massive cytokine release.

C4-2B-PSCA cells [6] = test: IFNγ ELISA of co-culture supernatants with increasing Zol; format: cell-based
Experimental: IFNγ ELISA of co-culture supernatants of C4-2B-PSCA cells exposed to media (negative control) or the indicated T cells, in presence of increasing concentrations of Zol (0, 0.4 and 0.8 μM).
as §5

γδ (CAR)-T cells = test: IL-2 secretion by γδ (CAR)-T cells; format: cell-based
[7] = tibias at study endpoint, vs control

## O=P(O)(O)C(O)(Cn1ccnc1)P(=O)(O)O [zoledronate]
[1]
  Intracellular IPP levels: did not produce IPP
T47D breast cancer cells
  Intracellular IPP levels: detectable over background
C4-2B-PSCA cells [2]
  viability of tumor cells, early time point: less evident
[3]
  viability of tumor cells, early time point: notable reduction in the viability
[4]; [7]
  apoptotic (cleaved caspase-3) cancer cells: increased
  proliferative (phospho-Histone H3) cancer cells: decreased
[4]; zoledronate group vs controls, with γδ T-cells
  C4-2B growth rate (bioluminescence): significantly slower
[5]; GFP-transduced and untransduced γδ T cells
  effect of zoledronate on target recognition by control γδ T cells: induced target recognition by GFP-transduced and untransduced γδ T cells
[5]; γδ CAR-T cells, coculture
  effect of zoledronate on interferon production by CAR-T cells: enhanced interferon production by CAR-T cells
CRPC C4-2BPSCA cell line
  effect of ZOL on cytolytic activity of γδ CAR-T: greatly enhanced
  time to complete elimination of tumor cells: ≤ 45 h
C4-2B-PSCA cells [6]; coculture of γδ (CAR-)T-cells with C4-2BPSCA cells
  effect of ZOL on IFNγ secretion: enhanced IFNγ secretion
C4-2B-PSCA cells [6]; αβ T cells used
  effect of ZOL on IFNγ secretion: not observed
γδ (CAR)-T cells
  IL-2 secretion by γδ (CAR)-T cells: increases IL-2 secretion
